Biological target: T1, BRM (Homo sapiens, UniProt P51531)
T1 construct: In-Cell Western Screen of BRM Degradation in SW1573 Cells; endogenous in cells; host or cells: SW1573
Assay: In-cell Western screen of BRM degradation in SW1573 cells (Dmax and DC50)
Format: cell-based
Settings: BRM degradation, SW1573 cells; for DC50: read-out: DC50; for Dmax: tested at the top concentration of between 0.3 and 10 μM, read-out: Dmax (%) (% degraded)
Method in brief: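 SW1573 cells were treated with compound overnight (18-20 h; final DMSO 0.1%), then fixed in 4% PFA, permeabilized with Triton X-100 and blocked. BRM was detected by in-cell Western using 800 nm anti-rabbit and 680 nm anti-mouse secondaries, and Dmax and DC50 were derived from the LI-COR Odyssey signal.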

T1 sequence (P51531 whole entry): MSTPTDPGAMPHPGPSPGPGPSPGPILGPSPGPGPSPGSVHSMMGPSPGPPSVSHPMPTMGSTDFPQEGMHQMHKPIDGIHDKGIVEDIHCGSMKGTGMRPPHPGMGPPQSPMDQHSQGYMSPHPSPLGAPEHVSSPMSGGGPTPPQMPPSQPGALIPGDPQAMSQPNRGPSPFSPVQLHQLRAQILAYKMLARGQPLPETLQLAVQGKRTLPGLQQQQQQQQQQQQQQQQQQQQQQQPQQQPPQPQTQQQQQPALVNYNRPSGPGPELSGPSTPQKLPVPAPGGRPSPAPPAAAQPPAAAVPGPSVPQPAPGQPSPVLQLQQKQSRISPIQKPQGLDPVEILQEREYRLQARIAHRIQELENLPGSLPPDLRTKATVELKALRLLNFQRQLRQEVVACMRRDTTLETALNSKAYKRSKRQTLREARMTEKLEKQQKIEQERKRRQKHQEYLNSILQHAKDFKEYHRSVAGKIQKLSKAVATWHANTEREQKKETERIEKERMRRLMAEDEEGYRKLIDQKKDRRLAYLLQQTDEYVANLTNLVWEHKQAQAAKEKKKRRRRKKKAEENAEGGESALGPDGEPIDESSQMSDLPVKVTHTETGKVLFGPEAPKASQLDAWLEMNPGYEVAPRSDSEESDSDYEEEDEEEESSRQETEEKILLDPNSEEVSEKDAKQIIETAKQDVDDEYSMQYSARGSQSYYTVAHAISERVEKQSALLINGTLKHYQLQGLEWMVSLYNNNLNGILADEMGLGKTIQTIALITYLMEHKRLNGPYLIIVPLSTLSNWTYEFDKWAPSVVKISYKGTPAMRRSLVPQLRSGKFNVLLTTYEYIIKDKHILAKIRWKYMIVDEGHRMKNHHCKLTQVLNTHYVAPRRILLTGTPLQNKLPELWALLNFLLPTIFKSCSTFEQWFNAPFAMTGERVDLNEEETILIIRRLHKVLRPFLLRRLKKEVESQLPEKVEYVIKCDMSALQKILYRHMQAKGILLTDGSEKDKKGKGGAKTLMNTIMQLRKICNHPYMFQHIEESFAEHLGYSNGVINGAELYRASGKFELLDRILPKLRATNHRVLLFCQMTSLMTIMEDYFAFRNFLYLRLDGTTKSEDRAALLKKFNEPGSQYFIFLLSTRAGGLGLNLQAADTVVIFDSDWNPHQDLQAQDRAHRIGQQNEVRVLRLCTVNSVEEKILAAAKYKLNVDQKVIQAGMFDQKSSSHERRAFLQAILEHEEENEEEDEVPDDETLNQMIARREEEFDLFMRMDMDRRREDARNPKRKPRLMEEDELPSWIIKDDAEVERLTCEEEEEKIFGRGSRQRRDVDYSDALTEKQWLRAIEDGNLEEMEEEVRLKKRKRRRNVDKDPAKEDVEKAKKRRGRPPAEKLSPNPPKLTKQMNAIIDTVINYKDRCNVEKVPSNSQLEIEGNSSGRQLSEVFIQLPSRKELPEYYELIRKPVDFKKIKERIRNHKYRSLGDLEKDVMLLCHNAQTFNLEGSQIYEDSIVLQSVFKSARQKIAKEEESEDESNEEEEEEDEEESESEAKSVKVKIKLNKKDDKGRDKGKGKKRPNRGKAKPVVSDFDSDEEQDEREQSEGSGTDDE

| SMILES | DC50 [nM] | Dmax [%] |
| --- | --- | --- |
| Cc1ncsc1-c1ccc([C@H](C)NC(=O)[C@@H]2C[C@@H](O)CN2C(=O)[C@H](c2onc(OCCN3CCC(O[C@H]4C[C@H](Oc5cc(N6C7CCC6CN(c6cc(-c8ccccc8O)nnc6N)C7)ccn5)C4)CC3)c2F)C(C)C)cc1 [compound 208, (2S,4R)-1-((2S)-2-(3-(2-(4-((1r,3S)-3-((4-(3-(3-amino-6-(2-hydroxyphenyl)pyridazin-4-yl)-3,8-diazabicyclo[3.2.1]octan-8-yl)pyridin-2-yl)oxy)cyclobutoxy)piperidin-1-yl)ethoxy)-4-fluoroisoxazol-5-yl)-3-methylbutanoyl)-4-hydroxy-N-((S)-1-(4-(4-methylthiazol-5-yl)phenyl)ethyl)pyrrolidine-2-carboxamide] | > 30 | > 75 |
| Cc1ncsc1-c1ccc([C@H](C)NC(=O)[C@@H]2C[C@@H](O)CN2C(=O)[C@@H](c2onc(OCCN3CCC(O[C@H]4C[C@H](Oc5cc(N6C7CCC6CN(c6cc(-c8ccccc8O)nnc6N)C7)ccn5)C4)CC3)c2F)C(C)C)cc1 [compound 209, (2S,4R)-1-((2R)-2-(3-(2-(4-((1r,3R)-3-((4-(3-(3-amino-6-(2-hydroxyphenyl)pyridazin-4-yl)-3,8-diazabicyclo[3.2.1]octan-8-yl)pyridin-2-yl)oxy)cyclobutoxy)piperidin-1-yl)ethoxy)-4-fluoroisoxazol-5-yl)-3-methylbutanoyl)-4-hydroxy-N-((S)-1-(4-(4-methylthiazol-5-yl)phenyl)ethyl)pyrrolidine-2-carboxamide] | < 2.5 | > 75 |
| Cc1ncsc1-c1ccc(CNC(=O)[C@@H]2C[C@@H](O)CN2C(=O)[C@@H](c2cc(OCCN3CCN(CCOc4cc(N5C6CCC5CN(c5cc(-c7ccccc7O)nnc5N)C6)ccn4)C[C@@H]3C)no2)C(C)C)cc1 [compound 210, (2S,4R)-1-((2R)-2-(3-(2-((2S)-4-(2-((4-(3-(3-amino-6-(2-hydroxyphenyl)pyridazin-4-yl)-3,8-diazabicyclo[3.2.1]octan-8-yl)pyridin-2-yl)oxy)ethyl)-2-methylpiperazin-1-yl)ethoxy)isoxazol-5-yl)-3-methylbutanoyl)-4-hydroxy-N-(4-(4-methylthiazol-5-yl)benzyl)pyrrolidine-2-carboxamide] | < 2.5 | > 75 |
| CC(C)[C@@H](C(=O)N1C[C@H](O)C[C@H]1C(=O)N[C@@H](C)c1ccc(-c2scnc2CO)cc1)c1cc(OCCN2CCC(O[C@H]3C[C@H](Oc4cc(N5C6CCC5CN(c5cc(-c7ccccc7O)nnc5N)C6)ccn4)C3)CC2)no1 [compound 211, (2S,4R)-1-((2R)-2-(3-(2-(4-((1r,3R)-3-((4-(3-(3-amino-6-(2-hydroxyphenyl)pyridazin-4-yl)-3,8-diazabicyclo[3.2.1]octan-8-yl)pyridin-2-yl)oxy)cyclobutoxy)piperidin-1-yl)ethoxy)isoxazol-5-yl)-3-methylbutanoyl)-4-hydroxy-N-((S)-1-(4-(4-(hydroxymethyl)thiazol-5-yl)phenyl)ethyl)pyrrolidine-2-carboxamide] | < 2.5 | > 75 |
| Cc1ncoc1-c1ccc([C@H](C)NC(=O)[C@@H]2C[C@@H](O)CN2C(=O)[C@H](c2cc(OCCN3CCC(O[C@H]4C[C@H](Oc5cc(N6C7CCC6CN(c6cc(-c8ccccc8O)nnc6N)C7)ccn5)C4)CC3)no2)C(C)C)cc1 [compound 212, (2S,4R)-1-((2S)-2-(3-(2-(4-((1r,3S)-3-((4-(3-(3-amino-6-(2-hydroxyphenyl)pyridazin-4-yl)-3,8-diazabicyclo[3.2.1]octan-8-yl)pyridin-2-yl)oxy)cyclobutoxy)piperidin-1-yl)ethoxy)isoxazol-5-yl)-3-methylbutanoyl)-4-hydroxy-N-((S)-1-(4-(4-methyloxazol-5-yl)phenyl)ethyl)pyrrolidine-2-carboxamide] | > 30 | > 75 |
| Cc1ncoc1-c1ccc([C@H](C)NC(=O)[C@@H]2C[C@@H](O)CN2C(=O)[C@@H](c2cc(OCCN3CCC(O[C@H]4C[C@H](Oc5cc(N6C7CCC6CN(c6cc(-c8ccccc8O)nnc6N)C7)ccn5)C4)CC3)no2)C(C)C)cc1 [compound 213, (2S,4R)-1-((2R)-2-(3-(2-(4-((1r,3R)-3-((4-(3-(3-amino-6-(2-hydroxyphenyl)pyridazin-4-yl)-3,8-diazabicyclo[3.2.1]octan-8-yl)pyridin-2-yl)oxy)cyclobutoxy)piperidin-1-yl)ethoxy)isoxazol-5-yl)-3-methylbutanoyl)-4-hydroxy-N-((S)-1-(4-(4-methyloxazol-5-yl)phenyl)ethyl)pyrrolidine-2-carboxamide] | < 2.5 | > 75 |
| COc1cc(-c2scnc2C)ccc1CNC(=O)[C@@H]1C[C@@H](O)CN1C(=O)[C@H](c1cc(OCCN2CCC(O[C@H]3C[C@H](Oc4cc(N5C6CCC5CN(c5cc(-c7ccccc7O)nnc5N)C6)ccn4)C3)CC2)no1)C(C)C [compound 214, (2S,4R)-1-((2S)-2-(3-(2-(4-((1r,3S)-3-((4-(3-(3-amino-6-(2-hydroxyphenyl)pyridazin-4-yl)-3,8-diazabicyclo[3.2.1]octan-8-yl)pyridin-2-yl)oxy)cyclobutoxy)piperidin-1-yl)ethoxy)isoxazol-5-yl)-3-methylbutanoyl)-4-hydroxy-N-(2-methoxy-4-(4-methylthiazol-5-yl)benzyl)pyrrolidine-2-carboxamide] | > 30 | – |
| COc1cc(-c2scnc2C)ccc1CNC(=O)[C@@H]1C[C@@H](O)CN1C(=O)[C@@H](c1cc(OCCN2CCC(O[C@H]3C[C@H](Oc4cc(N5C6CCC5CN(c5cc(-c7ccccc7O)nnc5N)C6)ccn4)C3)CC2)no1)C(C)C [compound 215, (2S,4R)-1-((2R)-2-(3-(2-(4-((1r,3R)-3-((4-(3-(3-amino-6-(2-hydroxyphenyl)pyridazin-4-yl)-3,8-diazabicyclo[3.2.1]octan-8-yl)pyridin-2-yl)oxy)cyclobutoxy)piperidin-1-yl)ethoxy)isoxazol-5-yl)-3-methylbutanoyl)-4-hydroxy-N-(2-methoxy-4-(4-methylthiazol-5-yl)benzyl)pyrrolidine-2-carboxamide] | < 2.5 | > 75 |
| Cc1ncsc1-c1ccc([C@H](C)NC(=O)[C@@H]2C[C@@H](O)CN2C(=O)[C@@H](c2cc(OCCN3CCC(O[C@H]4C[C@H](C#Cc5cc(N6C7CCC6CN(c6cc(-c8ccccc8O)nnc6N)C7)ccn5)C4)CC3)no2)C(C)C)cc1 [compound 216, (2S,4R)-1-((2R)-2-(3-(2-(4-((1r,3R)-3-((4-(3-(3-amino-6-(2-hydroxyphenyl)pyridazin-4-yl)-3,8-diazabicyclo[3.2.1]octan-8-yl)pyridin-2-yl)ethynyl)cyclobutoxy)piperidin-1-yl)ethoxy)isoxazol-5-yl)-3-methylbutanoyl)-4-hydroxy-N-((S)-1-(4-(4-methylthiazol-5-yl)phenyl)ethyl)pyrrolidine-2-carboxamide] | < 2.5 | > 75 |
| Cc1ncsc1-c1ccc([C@H](C)NC(=O)[C@@H]2C[C@@H](O)CN2C(=O)[C@H](c2cc(OCCCN3CCC(O[C@H]4C[C@H](Oc5cc(N6C7CCC6CN(c6cc(-c8ccccc8O)nnc6N)C7)ccn5)C4)CC3)no2)C(C)C)cc1 [compound 217, (2S,4R)-1-((2S)-2-(3-(3-(4-((1r,3S)-3-((4-(3-(3-amino-6-(2-hydroxyphenyl)pyridazin-4-yl)-3,8-diazabicyclo[3.2.1]octan-8-yl)pyridin-2-yl)oxy)cyclobutoxy)piperidin-1-yl)propoxy)isoxazol-5-yl)-3-methylbutanoyl)-4-hydroxy-N-((S)-1-(4-(4-methylthiazol-5-yl)phenyl)ethyl)pyrrolidine-2-carboxamide] | 2.5 to 10 | > 75 |
| Cc1ncsc1-c1ccc([C@H](C)NC(=O)[C@@H]2C[C@@H](O)CN2C(=O)[C@@H](c2cc(OCCCN3CCC(O[C@H]4C[C@H](Oc5cc(N6C7CCC6CN(c6cc(-c8ccccc8O)nnc6N)C7)ccn5)C4)CC3)no2)C(C)C)cc1 [compound 218, (2S,4R)-1-((2R)-2-(3-(3-(4-((1r,3R)-3-((4-(3-(3-amino-6-(2-hydroxyphenyl)pyridazin-4-yl)-3,8-diazabicyclo[3.2.1]octan-8-yl)pyridin-2-yl)oxy)cyclobutoxy)piperidin-1-yl)propoxy)isoxazol-5-yl)-3-methylbutanoyl)-4-hydroxy-N-((S)-1-(4-(4-methylthiazol-5-yl)phenyl)ethyl)pyrrolidine-2-carboxamide] | < 2.5 | > 75 |
| CC(C)[C@H](C(=O)N1C[C@H](O)C[C@H]1C(=O)N[C@@H](C)c1ccc(-c2scnc2CO)cc1)c1cc(OCCN2CCC(O[C@H]3C[C@H](Oc4cc(N5C6CCC5CN(c5cc(-c7ccccc7O)nnc5N)C6)ccn4)C3)CC2)no1 [compound 219, (2S,4R)-1-((2S)-2-(3-(2-(4-((1r,3S)-3-((4-(3-(3-amino-6-(2-hydroxyphenyl)pyridazin-4-yl)-3,8-diazabicyclo[3.2.1]octan-8-yl)pyridin-2-yl)oxy)cyclobutoxy)piperidin-1-yl)ethoxy)isoxazol-5-yl)-3-methylbutanoyl)-4-hydroxy-N-((S)-1-(4-(4-(hydroxymethyl)thiazol-5-yl)phenyl)ethyl)pyrrolidine-2-carboxamide] | > 30 | – |
| Cc1ncsc1-c1ccc(CNC(=O)[C@@H]2C[C@@H](O)CN2C(=O)[C@H](c2cc(OCC#Cc3ccc(O[C@H]4C[C@H](Oc5cc(N6C7CCC6CN(c6cc(-c8ccccc8O)nnc6N)C7)ccn5)C4)cn3)no2)C(C)C)cc1 [compound 220, (2S,4R)-1-((2S)-2-(3-((3-(5-((1r,3S)-3-((4-(3-(3-amino-6-(2-hydroxyphenyl)pyridazin-4-yl)-3,8-diazabicyclo[3.2.1]octan-8-yl)pyridin-2-yl)oxy)cyclobutoxy)pyridin-2-yl)prop-2-yn-1-yl)oxy)isoxazol-5-yl)-3-methylbutanoyl)-4-hydroxy-N-(4-(4-methylthiazol-5-yl)benzyl)pyrrolidine-2-carboxamide] | 10 to 30 | > 75 |
